Literature values in patent US20210361700A1 (priority 2020, published 2021).

Tested on: influenza
Details: older mice

Substance: Vitamin E
- resistance to and pathogenesis of influenza: Increases resistance to and
